Here are results for 24 compounds from patent publication US9988400B2 (Genentech, Inc., priority 2013, dated 2018).

For this assay, the target named is T1, HEK cells stably transfected with tetracycline inducible hNR1 and hNR2A (Homo sapiens, UniProt Q05586+Q12879).
T1 construct: expressed in transfected cells; host or cells: HEK cells, stably transfected, tetracycline/doxycycline inducible
Briefly: Assay 1: Cell-Based Assay, cytosolic calcium response to positive allosteric modulators (with 30 μM glycine and 300 nM L-glutamate, EC30). As to conditions: Table 2; for EC50: cytosolic calcium response, with 30 μM glycine and 300 nM L-glutamate (EC30), — = no plateau was reached; for Max %: responses scaled relative to 100 μM L-glutamate maximal response (100%) and 0 μM L-glutamate (0%). An outline of the steps:
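Cells induced 24 h with 7.5 μg mL^−1 doxycycline plus 500 μM (+)-ketamine, loaded 60 min at 37 °C with calcium dye in Mg-free HBSS (1.8 mM Ca, probenecid, 10 μM (+)-ketamine, pH 7.15). Peak RFU over 5 min after compound addition, scaled to 100 μM L-glutamate (100%) and 0 μM (0%); four-parameter Hill fit for EC50, max % if no plateau.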

Structures are written as SMILES.

T1 sequence (Q12879 23-1464, other chains not shown): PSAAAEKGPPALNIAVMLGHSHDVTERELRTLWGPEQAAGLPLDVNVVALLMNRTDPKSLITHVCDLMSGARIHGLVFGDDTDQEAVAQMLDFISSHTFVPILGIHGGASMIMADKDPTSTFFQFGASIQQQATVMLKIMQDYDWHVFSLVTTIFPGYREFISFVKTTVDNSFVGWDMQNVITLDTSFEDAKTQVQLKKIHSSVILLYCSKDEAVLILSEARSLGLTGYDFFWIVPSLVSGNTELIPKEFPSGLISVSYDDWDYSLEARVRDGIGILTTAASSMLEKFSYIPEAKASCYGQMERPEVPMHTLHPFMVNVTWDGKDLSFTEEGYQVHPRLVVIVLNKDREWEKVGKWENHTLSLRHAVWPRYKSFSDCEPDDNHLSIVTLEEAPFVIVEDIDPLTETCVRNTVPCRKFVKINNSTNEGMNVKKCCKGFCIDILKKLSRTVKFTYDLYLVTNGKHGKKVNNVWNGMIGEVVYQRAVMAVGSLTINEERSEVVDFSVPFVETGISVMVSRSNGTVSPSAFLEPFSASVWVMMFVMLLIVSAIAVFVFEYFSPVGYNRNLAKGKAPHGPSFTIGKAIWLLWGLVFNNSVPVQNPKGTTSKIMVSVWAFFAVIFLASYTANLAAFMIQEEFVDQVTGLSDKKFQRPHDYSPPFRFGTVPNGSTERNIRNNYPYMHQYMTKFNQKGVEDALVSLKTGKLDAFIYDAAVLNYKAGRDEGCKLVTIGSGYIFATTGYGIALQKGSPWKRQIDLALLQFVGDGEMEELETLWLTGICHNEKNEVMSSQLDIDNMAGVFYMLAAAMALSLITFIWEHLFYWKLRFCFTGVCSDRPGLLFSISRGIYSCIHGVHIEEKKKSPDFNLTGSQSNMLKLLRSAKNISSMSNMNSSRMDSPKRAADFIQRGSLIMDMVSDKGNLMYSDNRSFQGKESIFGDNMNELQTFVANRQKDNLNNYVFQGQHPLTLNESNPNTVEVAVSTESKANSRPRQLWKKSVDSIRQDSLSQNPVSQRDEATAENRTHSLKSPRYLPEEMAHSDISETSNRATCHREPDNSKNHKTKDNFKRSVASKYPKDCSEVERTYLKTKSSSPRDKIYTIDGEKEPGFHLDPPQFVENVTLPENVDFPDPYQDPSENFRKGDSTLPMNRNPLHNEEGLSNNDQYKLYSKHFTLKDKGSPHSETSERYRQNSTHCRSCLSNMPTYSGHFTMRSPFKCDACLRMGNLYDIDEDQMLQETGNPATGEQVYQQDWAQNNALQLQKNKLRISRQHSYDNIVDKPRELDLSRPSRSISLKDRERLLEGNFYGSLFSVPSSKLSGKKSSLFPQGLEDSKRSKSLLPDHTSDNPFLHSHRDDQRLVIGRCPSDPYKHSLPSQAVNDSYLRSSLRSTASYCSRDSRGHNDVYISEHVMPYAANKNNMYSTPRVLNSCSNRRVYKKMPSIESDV

`CCN(Cc1cc(=O)n2c(C(C)(C)O)csc2n1)c1ccc(F)cc1` [Example 10.19, 7-[(N-ethyl-4-fluoro-anilino)methyl]-3-(1-hydroxy-1-methyl-ethyl)thiazolo[3,2-a]pyrimidin-5-one]: the EC50 stood at 837 nM and the Max % was determined as 165%.

Take `CCN(Cc1cc(=O)n2c(C(C)O)csc2n1)c1ccc(F)cc1` (centres unmarked) [Example 10.20, 7-[(N-ethyl-4-fluoro-anilino)methyl]-3-(1-hydroxyethyl)thiazolo[3,2-a]pyrimidin-5-one]: the EC50 is 2200 nM and the Max % is reported as 178%.

With `CCN(Cc1cc(=O)n2c(CN3CCC34COC4)c(C)sc2n1)c1ccc(F)cc1` [Example 10.21, 7-[(N-ethyl-4-fluoro-anilino)methyl]-2-methyl-3-(6-oxa-1-azaspiro[3.3]heptan-1-ylmethyl)thiazolo[3,2-a]pyrimidin-5-one], the Max % amounted to 117%.

`CCN(Cc1cc(=O)n2c(CNCCO)c(C)sc2n1)c1ccc(F)cc1` [Example 10.22, 7-[(N-ethyl-4-fluoro-anilino)methyl]-3-[(2-hydroxyethylamino)methyl]-2-methyl-thiazolo[3,2-a]pyrimidin-5-one]: the EC50 came out at 7500 nM and the Max % worked out at 156%.

As for `CCN(Cc1cc(=O)n2c(CO)c(C)sc2n1)c1cccc(C#N)c1` [Example 10.23, 3-(ethyl((3-(hydroxymethyl)-2-methyl-5-oxo-5H-thiazolo[3,2-a]pyrimidin-7-yl)methyl)amino)benzonitrile], the EC50 came out at 22900 nM and the Max % is on record as 169%.

With `CCN(Cc1cc(=O)n2c(COC)c(C)sc2n1)c1cccc(C#N)c1` [Example 10.24, 3-[ethyl-[[3-(methoxymethyl)-2-methyl-5-oxo-thiazolo[3,2-a]pyrimidin-7-yl]methyl]amino]benzonitrile], the EC50 was 8900 nM and the Max % turned out to be 160%.

Consider `CCN(Cc1cc(=O)n2c(CSC)c(C)sc2n1)c1ccc(F)cc1` [Example 10.25, 7-((ethyl(4-fluorophenyl)amino)methyl)-2-methyl-3-((methylthio)methyl)-5H-thiazolo[3,2-a]pyrimidin-5-one], for which the EC50 is 345 nM and the Max % is 165%.

For the compound `CCN(Cc1cc(=O)n2c(Cl)c(C)sc2n1)c1ccc(F)cc1` [Example 11.1, 3-chloro-7-[[ethyl(4-fluorophenyl)amino]methyl]-2-methyl-5H-[1,3]thiazolo[3,2-a]pyrimidin-5-one], the EC50 is 2000 nM and the Max % is on record as 159%.

In the case of `CCN(Cc1cc(=O)n2c(F)c(C)sc2n1)c1ccc(F)cc1` [Example 11.2, 7-[(N-ethyl-4-fluoro-anilino)methyl]-3-fluoro-2-methyl-thiazolo[3,2-a]pyrimidin-5-one], the Max % came out at 107%.

Turning to `CCN(Cc1cc(=O)n2cc(C)sc2n1)c1ccc(F)cc1` [Example 11.3, 7-[(N-ethyl-4-fluoro-anilino)methyl]-2-methyl-thiazolo[3,2-a]pyrimidin-5-one], the EC50 came to 3200 nM and the Max % is listed as 132%.

With `CCN(Cc1cc(=O)n2c(I)c(C)sc2n1)c1ccc(F)cc1` [Example 11.4, 7-[(N-ethyl-4-fluoro-anilino)methyl]-3-iodo-2-methyl-thiazolo[3,2-a]pyrimidin-5-one], the Max % came to 103%.

On to `CCN(Cc1cc(=O)n2c(Cl)csc2n1)c1ccc(F)cc1` [Example 11.5, 3-chloro-7-[(N-ethyl-4-fluoro-anilino)methyl]thiazolo[3,2-a]pyrimidin-5-one], for which the EC50 came to 4600 nM and the Max % stood at 167%.

As to `CCN(Cc1cc(=O)n2cc(C)sc2n1)c1ccccc1` [Example 11.6, 7-[(N-ethylanilino)methyl]-2-methyl-thiazolo[3,2-a]pyrimidin-5-one], the EC50 was 5000 nM and the Max % turned out to be 133%.

On to `CCN(Cc1cc(=O)n2c(C(O)CCO)c(C)sc2n1)c1ccc(F)cc1` (centres unmarked) [Example 12.1, 3-(1,3-dihydroxypropyl)-7-[(N-ethyl-4-fluoro-anilino)methyl]-2-methyl-thiazolo[3,2-a]pyrimidin-5-one], for which the EC50 was 723 nM and the Max % worked out at 166%.

On to `CCN(Cc1cc(=O)n2c(C(F)CCO)c(C)sc2n1)c1ccc(F)cc1` (centres unmarked) [Example 12.2, 7-[(N-ethyl-4-fluoro-anilino)methyl]-3-(1-fluoro-3-hydroxy-propyl)-2-methyl-thiazolo[3,2-a]pyrimidin-5-one], for which the EC50 is 270 nM and the Max % was determined as 192%.

For the compound `CCN(Cc1cc(=O)n2c(C(O)CO)c(C)sc2n1)c1ccc(F)cc1` (centres unmarked) [Example 12.5, 3-(1,2-dihydroxyethyl)-7-[(N-ethyl-4-fluoro-anilino)methyl]-2-methyl-thiazolo[3,2-a]pyrimidin-5-one], the EC50 came to 974 nM and the Max % is given as 153%.

In the case of `CCN(Cc1cc(=O)n2c(CCCO)c(C)sc2n1)c1ccc(F)cc1` [Example 13.1, 7-[(N-ethyl-4-fluoro-anilino)methyl]-3-(3-hydroxypropyl)-2-methyl-thiazolo[3,2-a]pyrimidin-5-one], the EC50 stood at 434 nM and the Max % worked out at 161%.

On to `CCN(Cc1cc(=O)n2c(CCCOC)c(C)sc2n1)c1ccc(F)cc1` [Example 13.2, 7-((Ethyl(4-fluorophenyl)amino)methyl)-3-(3-methoxypropyl)-2-methyl-5H-thiazolo[3,2-a]pyrimidin-5-one], for which the EC50 is 913 nM and the Max % was determined as 130%.

On to `CCN(Cc1cc(=O)n2c(CCCCO)c(C)sc2n1)c1ccc(F)cc1` [Example 13.3, 7-((Ethyl(4-fluorophenyl)amino)methyl)-3-(4-hydroxybutyl)-2-methyl-5H-thiazolo[3,2-a]pyrimidin-5-one], for which the EC50 is 783 nM and the Max % is given as 137%.

Take `CCN(Cc1cc(=O)n2c(CCO)c(C)sc2n1)c1ccc(F)cc1` [Example 13.4, 7-((Ethyl(4-fluorophenyl)amino)methyl)-3-(2-hydroxyethyl)-2-methyl-5H-thiazolo[3,2-a]pyrimidin-5-one]: the EC50 turned out to be 777 nM and the Max % came out at 185%.

For the compound `CCN(Cc1cc(=O)n2c(CCOC)c(C)sc2n1)c1ccc(F)cc1` [Example 13.5, 7-[[Ethyl(4-fluorophenyl)amino]methyl]-3-(2-methoxyethyl)-2-methyl-5H-[1,3]thiazolo[3,2-a]pyrimidin-5-one], the EC50 came out at 1000 nM and the Max % is reported as 152%.

`CCN(Cc1cc(=O)n2c(CCC(N)=O)c(C)sc2n1)c1ccc(F)cc1` [Example 13.6, 3-(7-[[ethyl(4-fluorophenyl)amino]methyl]-2-methyl-5-oxo-5H-[1,3]thiazolo[3,2-a]pyrimidin-3-yl)propanamide]: the EC50 stood at 1400 nM and the Max % was determined as 125%.

`CCN(Cc1cc(=O)n2c(CCC#N)c(C)sc2n1)c1ccc(F)cc1` [Example 13.7, 3-[7-[(N-ethyl-4-fluoro-anilino)methyl]-2-methyl-5-oxo-thiazolo[3,2-a]pyrimidin-3-yl]propanenitrile]: the EC50 turned out to be 547 nM and the Max % came out at 137%.

For the compound `CCN(Cc1cc(=O)n2c(CCC(=O)N(C)C)c(C)sc2n1)c1ccc(F)cc1` [Example 13.8, 3-[7-[(N-ethyl-4-fluoro-anilino)methyl]-2-methyl-5-oxo-thiazolo[3,2-a]pyrimidin-3-yl]-N,N-dimethyl-propanamide], the Max % is reported as 61.2%.

The EC50 is the midpoint of the concentration-response curve.
